Reference: patent publication US4656166A, “Antibiotic compounds derived from cephalosporins, process for their production and pharmaceutical compositions” (Sanofi, priority 1983, dated 1987)
≈ marks a conversion by molar mass, not a printed value. Where two headings read alike, the source gives them in different places.

What was measured:
Type in all cases: cell-based
Escherichia coli SOL 90 = assay: MIC, in vitro dilution method, Escherichia coli SOL 90 (Table III); conditions: SOL90
Summary of the method: (§1)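 Bacteriostatic activity was determined in vitro by the dilution method against Gram-negative strains. Values are minimum inhibitory concentrations in μg/ml.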

Citrobacter RL 49 = assay: MIC, in vitro dilution method, Citrobacter RL 49 (Table III); conditions: RL49
Summary of the method: as §1

[1] = system: Proteus vulgaris RL 99 bis; assay: MIC, in vitro dilution method, Proteus vulgaris RL 99 bis (Table III); conditions: RL99BIS
Summary of the method: as §1

Serratia RL 72 = assay: MIC, in vitro dilution method, Serratia RL 72 (Table III); conditions: RL72
Summary of the method: as §1

Klebsiella RO 30 = assay: MIC, in vitro dilution method, Klebsiella RO 30 (Table III); conditions: RO30
Summary of the method: as §1

Enterobacter RO 154 = assay: MIC, in vitro dilution method, Enterobacter RO 154 (Table III); conditions: RO154
Summary of the method: as §1

Pseudomonas RL 112 = assay: MIC, in vitro dilution method, Pseudomonas RL 112 (Table III); conditions: RL112
Summary of the method: as §1

Escherichia coli 255 = assay: MIC on beta-lactamase producing strain Escherichia coli 255 (Table IV); conditions: Escherichia coli 255, producing beta-lactamases; read-out: MIC
Description: (§2) To evaluate the stability of these products towards beta-lactamases, their MIC was determined on isogenic strains producing and not producing beta-lactamases.
(§3) The results are expressed in μg/ml in Table IV.

Escherichia coli 255/L.7 = assay: MIC on strain not producing beta-lactamase, Escherichia coli 255/L.7 (Table IV); conditions: Escherichia coli 255/L.7 *, not producing beta-lactamases; read-out: MIC
Description: as §2, §3

[2] = system: Serrtia liquefaciens SL/326 A; assay: MIC on beta-lactamase producing strain Serratia liquefaciens SL/326 A (Table IV)
Description: as §2, §3

[3] = system: Serrtia liquefaciens SL 1326 S; assay: MIC on strain not producing beta-lactamase, Serratia liquefaciens SL 1326 S (Table IV); conditions: SL1326S, not producing beta-lactamases
Description: as §2, §3

[4] = system: Proteus vulgaris GN 76/C.1; assay: MIC on beta-lactamase producing strain Proteus vulgaris GN 76/C.1 (Table IV); conditions: GN76
Description: as §2, §3

[5] = system: Proteus vulgaris GN 76/C.1/3; assay: MIC on strain not producing beta-lactamase, Proteus vulgaris GN 76/C.1/3 (Table IV); conditions: GN76, not producing beta-lactamases
Description: as §2, §3

[6] = Escherichia coli SOL 90, dilution method, read-out: MIC
[7] = Citrobacter RL 49, dilution method, read-out: MIC
[8] = Proteus vulgaris RL 99 bis, dilution method, read-out: MIC
[9] = Klebsiella RO 30, dilution method, read-out: MIC
[10] = Enterobacter RO 154, dilution method, read-out: MIC
[11] = Proteus vulgaris GN 76/C.1, producing beta-lactamases, read-out: MIC

Row | Structure (SMILES) | MIC (Escherichia coli SOL 90; [6]) [µg/mL] | MIC (Citrobacter RL 49; [7]) [µg/mL] | MIC [1, 8] [µg/mL] | MIC (Serratia RL 72) [µg/mL] | MIC (Klebsiella RO 30; [9]) [µg/mL] | MIC (Enterobacter RO 154; [10]) [µg/mL] | MIC (Pseudomonas RL 112) [µg/mL] | MIC (Escherichia coli 255) [µg/mL] | MIC (Escherichia coli 255/L.7) [µg/mL] | MIC [2] [µg/mL] | MIC [3] [µg/mL] | MIC [4, 11] [µg/mL] | MIC [5] [µg/mL] | MIC ([1]; Proteus vulgaris) [µg/mL] | MIC ([4]; Proteus vulgaris) [µg/mL] | MIC (Escherichia coli SOL 90; Escherichia coli) [µg/mL] | MIC (Citrobacter RL 49; Citrobacter) [µg/mL] | MIC (Klebsiella RO 30; Klebsiella) [µg/mL] | MIC (Enterobacter RO 154; Enterobacter) [µg/mL]
1 | CC(C)(ON=C(C(=O)NC1C(=O)N2C(C(=O)O)=C(COC(=O)C3CCCNC3)C[S+]([O-])C12)c1csc(N)n1)C(=O)O (centres unmarked) [42 022] | 0.5 (≈ 0.816 µM) | 0.25 (≈ 0.408 µM) | ≤ 0.12 | 0.5 (≈ 0.816 µM) | 0.25 (≈ 0.408 µM) | 2 (≈ 3.26 µM) | 4 (≈ 6.53 µM) | 0.25 (≈ 0.408 µM) | 0.25 (≈ 0.408 µM) | ≤ 0.12 | ≤ 0.12 | ≤ 0.12 | ≤ 0.12 |  |  |  |  |  | 
2 | Cc1ccc(CN)c(C)c1C(=O)OCC1=C(C(=O)O)N2C(=O)C(NC(=O)/C(=N\OC(C)(C)C(=O)O)c3csc(N)n3)C2[S+]([O-])C1 (centres unmarked) [42 457] | 0.5 (≈ 0.754 µM) | 0.25 (≈ 0.377 µM) |  | 0.5 (≈ 0.754 µM) | 0.25 (≈ 0.377 µM) | 0.25 (≈ 0.377 µM) | 8 (≈ 12.1 µM) | 0.125 (≈ 0.189 µM) | ≤ 0.0312 | 0.0625 (≈ 0.0943 µM) | 0.0625 (≈ 0.0943 µM) |  | 0.0625 (≈ 0.0943 µM) | ≤ 0.125 | ≤ 0.0312 |  |  |  | 
3 | NCC(=O)Nc1nc(C(=O)OCC2=C(C(=O)O)N3C(=O)C(NC(=O)C(=NOC4(C(=O)O)CCC4)c4csc(N)n4)C3[S+]([O-])C2)cs1 (centres unmarked) [42 547] | 0.5 (≈ 0.718 µM) | 0.25 (≈ 0.359 µM) |  | 0.5 (≈ 0.718 µM) | 0.25 (≈ 0.359 µM) | 0.5 (≈ 0.718 µM) | 4 (≈ 5.74 µM) | 0.125 (≈ 0.179 µM) | ≤ 0.0312 | 2 (≈ 2.87 µM) | 0.125 (≈ 0.179 µM) | 0.0625 (≈ 0.0897 µM) | 0.25 (≈ 0.359 µM) | ≤ 0.125 |  |  |  |  | 
4 | CC(C)(O/N=C(\C(=O)NC1C(=O)N2C(C(=O)O)=C(COC(=O)CCCCN)C[S+]([O-])C12)c1csc(N)n1)C(=O)O (centres unmarked) [41 967] | 0.25 (≈ 0.416 µM) | 0.5 (≈ 0.832 µM) | ≤ 0.12 | 0.5 (≈ 0.832 µM) | 0.25 (≈ 0.416 µM) | 2 (≈ 3.33 µM) | 4 (≈ 6.66 µM) | ≤ 0.12 | ≤ 0.12 | 0.25 (≈ 0.416 µM) | ≤ 0.12 | ≤ 0.12 | ≤ 0.12 |  |  |  |  |  | 
5 | CNCc1ccc(C(=O)OCC2=C(C(=O)O)N3C(=O)C(NC(=O)/C(=N\OC(C)(C)C(=O)O)c4csc(N)n4)C3[S+]([O-])C2)cc1 (centres unmarked) [42 395] |  |  |  | 0.5 (≈ 0.771 µM) |  |  | 4 (≈ 6.17 µM) | 0.0625 (≈ 0.0964 µM) | 0.0625 (≈ 0.0964 µM) | 0.125 (≈ 0.193 µM) | ≤ 0.0312 |  | ≤ 0.0312 | ≤ 0.125 | ≤ 0.0312 | ≤ 0.125 | ≤ 0.125 | ≤ 0.125 | ≤ 0.125
6 | CC(C)(O/N=C(\C(=O)NC1C(=O)N2C(C(=O)O)=C(COC(=O)CC3CCNCC3)C[S+]([O-])C12)c1csc(N)n1)C(=O)O (centres unmarked) [42 474] | 0.25 (≈ 0.399 µM) |  |  | 0.25 (≈ 0.399 µM) | 0.25 (≈ 0.399 µM) |  | 4 (≈ 6.38 µM) | 0.0625 (≈ 0.0997 µM) | 0.0625 (≈ 0.0997 µM) | 0.125 (≈ 0.199 µM) | ≤ 0.0312 |  | 0.0625 (≈ 0.0997 µM) | ≤ 0.125 | 0.0625 (≈ 0.0997 µM) |  | ≤ 0.125 |  | ≤ 0.125
7 | CC(C)(O/N=C(\C(=O)NC1C(=O)N2C(C(=O)O)=C(COC(=O)C3(N)CCCC3)C[S+]([O-])C12)c1csc(N)n1)C(=O)O (centres unmarked) [41 975] | 0.25 (≈ 0.408 µM) | 0.5 (≈ 0.816 µM) | 0.5 (≈ 0.816 µM) | 4 (≈ 6.53 µM) | 0.5 (≈ 0.816 µM) | 8 (≈ 13.1 µM) | 8 (≈ 13.1 µM) | 0.5 (≈ 0.816 µM) | 0.5 (≈ 0.816 µM) | 0.25 (≈ 0.408 µM) | ≤ 0.12 | 0.5 (≈ 0.816 µM) |  |  |  |  |  |  | 
8 | CC(C)(O/N=C(\C(=O)NC1C(=O)N2C(C(=O)O)=C(COC(=O)c3csc(NC(=O)CN)n3)C[S+]([O-])C12)c1csc(N)n1)C(=O)O (centres unmarked) [42 466] | 0.5 (≈ 0.73 µM) | 0.25 (≈ 0.365 µM) |  | 2 (≈ 2.92 µM) | 0.5 (≈ 0.73 µM) | 0.5 (≈ 0.73 µM) | 4 (≈ 5.84 µM) | 0.125 (≈ 0.183 µM) | 0.125 (≈ 0.183 µM) | 1 (≈ 1.46 µM) | ≤ 0.0312 |  | 0.0625 (≈ 0.0913 µM) | ≤ 0.125 | ≤ 0.0312 |  |  |  | 
9 | CNCc1ccc(C(=O)SCC2=C(C(=O)O)N3C(=O)C(NC(=O)C(=NOC(C)(C)C(=O)O)c4csc(N)n4)C3[S+]([O-])C2)cc1 (centres unmarked) [compound 42533] | 0.5 (≈ 0.752 µM) | 0.25 (≈ 0.376 µM) |  | 1 (≈ 1.5 µM) | 0.25 (≈ 0.376 µM) | 0.5 (≈ 0.752 µM) | 8 (≈ 12 µM) | 0.125 (≈ 0.188 µM) | 0.0625 (≈ 0.094 µM) | 0.125 (≈ 0.188 µM) | ≤ 0.0312 |  | 0.125 (≈ 0.188 µM) | ≤ 0.125 | 0.0625 (≈ 0.094 µM) |  |  |  | 
10 | CC(C)(ON=C(C(=O)NC1C(=O)N2C(C(=O)O)=C(CSC(=O)C3CCC(CN)CC3)C[S+]([O-])C12)c1csc(N)n1)C(=O)O (centres unmarked) [compound 42118] | 1 (≈ 1.52 µM) | 0.5 (≈ 0.761 µM) | 0.25 (≈ 0.381 µM) | 4 (≈ 6.09 µM) | 0.5 (≈ 0.761 µM) | 16 (≈ 24.4 µM) | 8 (≈ 12.2 µM) | 0.5 (≈ 0.761 µM) | 0.25 (≈ 0.381 µM) | 0.25 (≈ 0.381 µM) | 0.12 (≈ 0.183 µM) | 0.5 (≈ 0.761 µM) |  |  |  |  |  |  | 
